In ChEMBL document CHEMBL5532709, “Discovery of Biofilm Inhibitors from the Microbiota of Marine Egg Masses” (J Nat Prod, 2024):
The source made the active and inactive calls. No cut-off for these calls is given here.

How the values were obtained:
[1] = system: Vibrio cholerae; assay: Inhibition of biofilm formation of Vibrio cholerae incubated for 4.5 hrs by epifluorescence based assay; type: functional, organism-based
[2] = system: Staphylococcus aureus; assay: Inhibition of biofilm formation of Staphylococcus aureus incubated for 16 to 20 hrs by crystal violet staining based analysis; type: functional, organism-based
[3] = system: Staphylococcus aureus; assay: Antibacterial activity against Staphylococcus aureus assessed as bacterial growth inhibition at 0.005 to 10 mg/ml incubated for 16 to 20 hrs by crystal violet staining based analysis; type: functional, organism-based; conditions: dose 0.005-10 mg/ml, time 16-20 hrs
[4] = system: Staphylococcus aureus; assay: Disruption of pre-formed biofilm of Staphylococcus aureus at 518 uM incubated for 16 to 20 hrs by crystal violet staining based analysis relative to control; type: functional; conditions: time 16-20 hrs
[5] = system: Isoptericola; assay: Inhibition of biofilm formation of Isoptericola at 0.005 to 10 mg/ml incubated for 16 to 20 hrs by crystal violet staining based analysis; type: functional, organism-based
[6] = system: Staphylococcus aureus; assay: Inhibition of biofilm formation of Staphylococcus aureus at […] incubated for 16 to 20 hrs in presence of >6.25 uM FeCl3 by crystal violet staining based analysis; type: functional, organism-based; conditions: dose lower 88.0 mg/ml, time 16-20 hrs
[7] = system: Staphylococcus aureus; assay: Inhibition of biofilm formation of methicillin-resistant Staphylococcus aureus N315 at ~1 ug/ml incubated for 24 hrs by crystal violet staining based analysis relative to control; type: functional

C=C1Oc2cc(OC)cc(C(=O)OC)c2NC1=O
IC50 [1]: 60.1 µM

O=C(NCCCC[C@@H]1CN=C(c2cccc(O)c2O)N1)c1cccc(O)c1O
IC50 [2]: 88.5 µM | inhibition ([2]; time 16-20 hrs): Dose-Dependent Effect | inhibition [3]: inactive | Activity [4]: 30% | IC50 [5]: 50.6 µM | inhibition [6]: inactive

CCCCC1CCCCCCc2cc1c(/C=C1\N=C(c3ccc[nH]3)C=C1OC)[nH]2 (stereo not drawn) [STREPTORUBIN B]
inhibition at 1 µg/mL [7]: 70%
